Read-outs that look alike come from different tables or passages of the source. Each block holds one molecule with its values, some of them ahead of it.
What was measured:
[1] = system: ACHN cells; assay: RT-qPCR of VEGF and VEGF222/NF in ACHN cells transduced with shRNA; type: cell-based
From the text: (§1) For these constructs, the C-terminal V5-tag was not in frame. To generate lentiviral shRNA plasmids, pLKO.1-TRC cloning vector, a kind gift from David Roots, has been used. pLKO.1-TRC contains a 1.9 kb stuffer released by Agel and EcoRI digestion. shRNA oligos were annealed and ligated into the Agel and EcoRI sites in place of the stuffer. The following shRNA sequences were used: shScramble: 5′-[…]-3′ (SEQ ID NO: 26); shVEGF #1: 5′-[…]-3′ (SEQ ID NO: 27) shVEGF #2: 5′-[…]-3′ (SEQ ID NO: 28); shVEGFNF #1: 5′-[…]-3′ (SEQ ID NO: 29); shVEGFNF #2: 5′-[…]-3′(SEQ ID NO: 30); shNRP1: 5′-[…]-3′(SE ID NO: 31); shNRP2: 5′-[…]-3 (SEQ ID NO: 32)′. All plasmids were verified by Sanger sequencing (Eurofins Genomics).
(§2) Lentivirus were produced by triple transfection of HEK-293T cells with a lentiviral transfer vector (pLenti6.3 for overexpression experiments and pLKO.1 for shRNA experiments), and the packaging plasmids psPAX2 and pMD2.G at a 0.3:0.3:0.1 ratio. Transfection was performed using JetPEI® reagent as recommended by the manufacturer Polyplus transfection. The viral supernatant was collected 48 hours following transfection, filtered through a 0.22 μm filter, and added to target cells.
(§3) RT-PCR and RT-qPCR analyses were carried out on human tissue mRNA (BIOCHAIN®) and on cancer cell lines. mRNAs were prepared with a Nucleospin RNA kit (Macherey-Nagel), and cDNA synthesis was performed with a Maxima First Strand CDNA Synthesis Kit for RT-qPCR, with dsDNase (Fischer scientific), according to the manufacturers' instructions.
(§4) PCR analysis was performed on Biometra thermal cycler with PrimeSTAR GXL DNA polymerase (Takara Bio). Quantitative PCR analysis was performed on Applied Biosystems StepOnePlus™ System with TB Green® premix Ex Taq™ (Tli RNase H Plus) (Takara Bio) reagents. All samples were assayed in triplicate. Relative expression levels were determined with the dCt method and normalized to the 36B4 reference gene.

[2] = system: 786-O cells; assay: RT-qPCR of VEGF and VEGF222/NF in 786-O cells transduced with shRNA; type: cell-based
From the text: as §1, §2, §3, §4

[3] = system: metastatic ccRCC; assay: PFS and OS of metastatic (M1) ccRCC patients treated by sunitinib, grouped by plasma VEGF222/NF; type: in vivo, human
Experimental: Informed consent was obtained from all individual participants included in the study. All patients gave written consent for the use of tumor and blood samples for research. This study was conducted in accordance with the Declaration of Helsinki. Primary tumor samples of 93 non-metastatic (M0) ccRCC patients were obtained from the Rennes and Bordeaux University Hospitals (UroCCR group, NCT03293563). For metastatic patients, the population of the study included 47 ccRCC patients from the prospective SUVEGIL (NCT00943839) and TORAVA (NCT00619268) trials and from a retrospective cohort from Pavia (Italy).
Informed consent was obtained from all individual participants included in the study. All patients gave written consent for the use of tumor and blood samples for research. This study was conducted in accordance with the Declaration of Helsinki. Primary tumor samples of 93 non-metastatic (M0) ccRCC patients were obtained from the Rennes and Bordeaux University Hospitals (UroCCR group, NCT03293563). For metastatic patients, the population of the study included 47 ccRCC patients from the prospective SUVEGIL (NCT00943839) and TORAVA (NCT00619268) trials and from a retrospective cohort from Pavia (Italy). Metastatic patients received oral sunitinib (50 mg per day) once a day for 4 weeks (on days 1 to 28), followed by 2 weeks of treatment interruption. Sunitinib was continued in the absence of disease progression or unacceptable toxicity. Blood samples were collected before the beginning of the treatment (TO). Blood samples were centrifuged (10 000 g for 10 min) and the plasmas were collected and conserved at −80° C. Plasmatic levels of VEGF and VEGF222/NF were determined by ELISA as described in the ELISA method details section. PFS and OS were calculated from patient subgroups with VEGFA or VEGF222/NF plasmatic levels that were less or greater than the third quartile value.
Statistical analysis was carried out using GraphPad Prism 8. Data were expressed as mean±SEM and were compared using an unpaired Mann-Whitney test for intergroup analysis. For patients: The Student's t-test was used to compare continuous variables and chi-square test, or Fisher's exact test (when the conditions for use of the χ2-test were not fulfilled), were used for categorical variables. DFS was defined as the time from surgery to the appearance of metastasis. PFS was defined as the time between surgery and progression, or death from any cause, censoring live patients and progression free at the last follow-up. OS was defined as the time between surgery and the date of death from any cause, censoring those alive at the last follow-up. The Kaplan-Meier method was used to produce survival curves and analyses of censored data were performed using Cox models. Significance was defined as P<0.05.
The detrimental effects of VEGF222/NF in immunodeficient mice and zebrafish models prompted us to analyze the prognostic impact of its plasmatic levels in comparison to plasmatic VEGF level on a cohort of 47 metastatic (M1) ccRCC patients treated by sunitinib. The third quartile was used as the cut-off to determine patients' groups, respectively 4500 […] for VEGF and VEGF222/NF. […] However, patients with high plasmatic levels of both VEGF222/NF and VEGF had the shortest PFS (FIG. 14). […] Whereas VEGF was not associated with a significant effect on OS, high expression of VEGF222/NF WAS synonymous of a shorter overall survival (OS) in M1 patients (FIGS. 13C,D).

[4] = biological target: T1, VEGFR1 (UniProt P17948 27-756, limits assumed); assay: saturation binding experiment
T1 construct: also called VEGFR1/Flt1

[5] = biological target: T2, VEGFR2 (UniProt P35968 20-764, limits assumed); assay: saturation binding experiment
T2 construct: also called VEGFR2/KDR

[6] = biological target: T3, VEGFR3 (UniProt P35916 25-776, limits assumed); assay: saturation binding experiment
T3 sequence (looked up): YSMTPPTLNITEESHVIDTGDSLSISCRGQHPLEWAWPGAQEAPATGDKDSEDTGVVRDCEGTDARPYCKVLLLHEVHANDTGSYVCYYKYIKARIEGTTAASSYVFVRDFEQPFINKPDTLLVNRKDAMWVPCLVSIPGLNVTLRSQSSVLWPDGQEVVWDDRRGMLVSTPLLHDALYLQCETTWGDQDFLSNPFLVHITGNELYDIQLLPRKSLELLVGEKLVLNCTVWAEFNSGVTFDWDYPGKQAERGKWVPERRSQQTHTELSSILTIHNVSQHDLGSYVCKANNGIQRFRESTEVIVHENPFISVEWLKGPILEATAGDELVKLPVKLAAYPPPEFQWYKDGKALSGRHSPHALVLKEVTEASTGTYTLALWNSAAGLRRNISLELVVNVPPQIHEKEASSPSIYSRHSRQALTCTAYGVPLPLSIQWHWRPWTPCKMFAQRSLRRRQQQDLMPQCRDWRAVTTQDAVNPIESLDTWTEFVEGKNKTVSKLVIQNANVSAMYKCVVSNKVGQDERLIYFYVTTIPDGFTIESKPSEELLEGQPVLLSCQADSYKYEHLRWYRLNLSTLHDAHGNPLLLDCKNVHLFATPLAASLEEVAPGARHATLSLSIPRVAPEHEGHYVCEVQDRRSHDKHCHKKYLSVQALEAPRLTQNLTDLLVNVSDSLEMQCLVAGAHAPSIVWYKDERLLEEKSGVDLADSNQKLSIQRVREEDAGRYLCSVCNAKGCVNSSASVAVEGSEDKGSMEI

[7] = In vivo […] plug assay (hemoglobin content); parameters: species or system mice; settings: 200 ng in 200 μL MATRIGEL, two weeks
Experimental: A″) VEGF222/NF induces phosphorylation of VEGFR2 and activation of the downstream signaling pathways AKT and ERK. […] Cells were washed with PBS and lyzed with Laemmli buffer. Immuno blots were performed with the indicated antibodies. […] Cells were counted for 7 days. […] D) Wound closure was determined at 3 h, 6 h, 9 h and 12 h following treatment. E) In vitro permeability assay. […] Streptavidin-HRP was then added to the transwell for 10 minutes and TMB substrate was added in the lower compartment to assess permeability. F) In vivo permeability assay. […] After 20 minutes, ears were recovered, and the amount of Evans blue was determined by colorimetry (top panel). […] G) In vivo plug assay. […] Representative photographs of the […]® plug 15 days after implantation (bottom panel).
6-weeks old female NMRI mice (n=15) were used for this experiment. […] […]® plugs were recovered after two weeks for hemoglobin quantity analysis. Plugs hemoglobin content was assessed with the hemoglobin assay kit (Sigma Aldrich) and experiments were conducted according to the manufacturer recommendations. Results are expressed in micrograms of hemoglobin per milligram of […]®.

[8] = system: ACHN cells; assay: Proliferation of ACHN cells overexpressing VEGF165 or VEGF222/NF; type: cell-based; settings: overexpression in ACHN cells, versus LacZ
Experimental: FIG. 6. VEGF222/NF promotes the proliferation and the survival of RCC cells. […] Cells were counted for 7 days. ***P<0.001 vs LacZ. D-E) RT-qPCR analysis of the expression of VEGF222/NF and VEGF in ACHN (D) and in 786-O (E) cells transduced with pLKO.1 expressing shVEGF165 or shVEGF222/NF. *P<0.05. **P<0.01, ***P<0.001 vs Scramble.
For endothelial cell proliferation assays, TIME or HDLECs cells (50.000 and 25.000, respectively) were seeded in 6-well plates in Endothelial Cell Growth Medium (Promocell) containing 0.5% FBS. […] Results were expressed as fold increase considering day 0 as the reference. For ACHN proliferation, ACHN-LacZ, ACHN-VEGF165, ACHN-VEGF222/NF cells were seeded (20.000) in 6-well plates in DMEM medium containing 0.5% FBS. Cells were counted at day 0, 1, 3, 5 and 7. Results are expressed as fold increase considering day 0 as the reference.

[9] = ACHN cells, pLKO.1 lentiviral transduction
[10] = 786-O cells, pLKO.1 lentiviral transduction

T1 sequence (P17948 27-756 limits assumed): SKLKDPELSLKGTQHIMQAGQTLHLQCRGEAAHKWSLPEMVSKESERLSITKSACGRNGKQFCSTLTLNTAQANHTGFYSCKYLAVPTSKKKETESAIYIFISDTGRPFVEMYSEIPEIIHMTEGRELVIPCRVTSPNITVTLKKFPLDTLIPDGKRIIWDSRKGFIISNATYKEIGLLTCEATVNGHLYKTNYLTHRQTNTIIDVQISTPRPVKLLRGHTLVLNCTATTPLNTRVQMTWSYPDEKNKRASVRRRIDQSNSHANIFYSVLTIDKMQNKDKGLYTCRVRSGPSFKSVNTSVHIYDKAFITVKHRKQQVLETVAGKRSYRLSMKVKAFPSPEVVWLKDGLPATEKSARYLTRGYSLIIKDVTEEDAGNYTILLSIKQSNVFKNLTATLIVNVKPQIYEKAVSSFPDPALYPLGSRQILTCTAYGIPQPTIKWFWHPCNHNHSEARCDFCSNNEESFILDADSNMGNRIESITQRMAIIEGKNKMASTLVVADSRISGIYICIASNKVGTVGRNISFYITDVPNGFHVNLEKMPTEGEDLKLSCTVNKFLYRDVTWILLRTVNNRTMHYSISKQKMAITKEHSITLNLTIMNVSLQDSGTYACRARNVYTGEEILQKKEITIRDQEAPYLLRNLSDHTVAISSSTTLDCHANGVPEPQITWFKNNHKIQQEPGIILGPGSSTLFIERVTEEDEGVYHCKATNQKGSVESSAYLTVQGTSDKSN
T2 sequence (P35968 20-764 limits assumed): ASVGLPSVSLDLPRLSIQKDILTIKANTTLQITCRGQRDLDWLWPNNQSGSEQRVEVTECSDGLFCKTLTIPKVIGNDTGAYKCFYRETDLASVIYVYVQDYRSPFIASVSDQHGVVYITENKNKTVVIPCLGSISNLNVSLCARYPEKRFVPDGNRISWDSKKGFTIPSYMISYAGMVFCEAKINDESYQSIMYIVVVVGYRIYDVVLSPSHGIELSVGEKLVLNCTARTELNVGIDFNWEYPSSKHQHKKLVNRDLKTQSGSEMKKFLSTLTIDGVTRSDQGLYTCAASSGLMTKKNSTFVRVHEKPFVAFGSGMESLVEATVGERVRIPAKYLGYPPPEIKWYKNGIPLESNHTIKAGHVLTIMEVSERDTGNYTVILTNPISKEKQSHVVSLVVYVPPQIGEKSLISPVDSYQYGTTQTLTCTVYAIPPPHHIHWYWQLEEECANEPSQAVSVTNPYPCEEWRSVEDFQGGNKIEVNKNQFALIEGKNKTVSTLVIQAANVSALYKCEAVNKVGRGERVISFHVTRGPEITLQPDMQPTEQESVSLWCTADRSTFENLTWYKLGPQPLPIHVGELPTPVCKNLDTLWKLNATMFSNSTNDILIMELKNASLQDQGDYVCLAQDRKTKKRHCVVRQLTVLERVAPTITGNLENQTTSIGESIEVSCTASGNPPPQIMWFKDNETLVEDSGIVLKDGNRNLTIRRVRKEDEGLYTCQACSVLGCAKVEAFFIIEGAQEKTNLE

Molecule: 5′-AGGGCAGAATCATCACGAAGT-3′ (expressed or natural sequence) [shRNA #2]
expression of the respective target (VEGF or VEGF222/NF) [1, 9]: downregulated the expression of their respective targets
expression of the respective target (VEGF or VEGF222/NF) [2, 10]: downregulated the expression of their respective targets

Molecule: 5′-CATITCCCTCAGATGTGACAA-3′ (CATTTCCCTCAGATGTGACAA; chemistry not given here) [shRNA NF #2]
expression of the respective target (VEGF or VEGF222/NF) [1]: downregulated the expression of their respective targets
expression of the respective target (VEGF or VEGF222/NF) [2]: downregulated the expression of their respective targets

Molecule: 5′-GCCTTTGTITTCCATTTCC-3′ (GCCTTTGTTTTCCATTTCC; chemistry not given here) [shRNA NF #1]
expression of the respective target (VEGF or VEGF222/NF) [1]: downregulated the expression of their respective targets
expression of the respective target (VEGF or VEGF222/NF) [2]: downregulated the expression of their respective targets

Molecule: 5′-GCGCAAGAAATCCCGGTATAA-3′ (expressed or natural sequence) [shRNA #1]
expression of the respective target (VEGF or VEGF222/NF) [1, 9]: downregulated the expression of their respective targets
expression of the respective target (VEGF or VEGF222/NF) [2, 10]: downregulated the expression of their respective targets

Molecule: CCN(CC)CCNC(=O)c1c(C)[nH]c(/C=C2\C(=O)Nc3ccc(F)cc32)c1C [sunitinib]
Death % ([3]; High VEGF222/NF): 83%
OS (months) ([3]; High VEGF222/NF): 13 months
PFS (months) ([3]; High VEGF222/NF): 5 months
progression % ([3]; High VEGF222/NF): 83%
Death % ([3]; Low VEGF222/NF): 68%
OS (months) ([3]; Low VEGF222/NF): 37 months
PFS (months) ([3]; Low VEGF222/NF): 15 months
progression % ([3]; Low VEGF222/NF): 76%
Death % ([3]; Total): 75%
OS (months) ([3]; Total): 33 months
progression % ([3]; Total): 82%
PFS (months) ([3]; Total, 47 M1 ccRCC patients): 12 months

Kd [4]: 1.12 nM
Kd [5]: 0.73 nM
Kd [6]: 10.4 nM
B1: recombinant VEGF222/NF protein produced in HEK293 cells by ProteoGenix (ligand)
chain: GSHHHHHHSGLEVLFQGPAPMAEGGGQNHHEVVKFMDVYQRSYCHPIETLVDIFQEYPDEIEYIFKPSCVPLMRCGGCCNDEGLECVPTEESNITMQIMRIKPHQGQHIGEMSFLQHNKCECRPKKDRARQENPCGPCSERRKHLFVQDPQTCKCSCKNTDSRCKARQLELNERTCSLCFPFPSDVTSRGGEPGRRKEPPSGFREPDLSPGKTDTERSIQKPRCRHHTITIDRTVLNPET
notes: also called VEGF222 New Form; rVEGF222/NF

B2: VEGF165: conventional pro-angiogenic VEGF isoform, recombinant, used as comparator (protein)
chain: APMAEGGGQNHHEVVKFMDVYQRSYCHPIETLVDIFQEYPDEIEYIFKPSCVPLMRCGGCCNDEGLECVPTEESNITMQIMRIKPHQGQHIGEMSFLQHNKCECRPKKDRARQENPCGPCSERRKHLFVQDPQTCKCSCKNTDSRCKARQLELNERTCRCDKPRR
reddish aspect and hemoglobin content of plugs [7]: equivalent
ACHN cell proliferation [8]: stimulated ACHN cell proliferation
